Results reported in paper PMC4601599, “High-resolution structures of Lactobacillus salivarius transketolase in the presence and absence of thiamine pyrophosphate” (Acta Crystallographica. Section F, Structural Biology …, 2015).

Experiments:
[1] = target: T1, LsTktA (Lactobacillus salivarius UCC118 transketolase) (Ligilactobacillus salivarius, UniProt Q1WQU8); experiment: X-ray crystal structure of co-crystal, […] A; type: binding; conditions: Mg2+; co-crystallised with 0.5 mM TPP and 2 mM MgCl2; pH 7.5; 293 K; site at dimer interface
T1 construct: gene tktA; pOPINF, His-tagged, expressed in E. coli Rosetta pLysS (DE3); 680 residues with tag; 662 residues modelled; homodimer; megaplasmid pMP118-encoded
T1 sequence (Q1WQU8 1-663): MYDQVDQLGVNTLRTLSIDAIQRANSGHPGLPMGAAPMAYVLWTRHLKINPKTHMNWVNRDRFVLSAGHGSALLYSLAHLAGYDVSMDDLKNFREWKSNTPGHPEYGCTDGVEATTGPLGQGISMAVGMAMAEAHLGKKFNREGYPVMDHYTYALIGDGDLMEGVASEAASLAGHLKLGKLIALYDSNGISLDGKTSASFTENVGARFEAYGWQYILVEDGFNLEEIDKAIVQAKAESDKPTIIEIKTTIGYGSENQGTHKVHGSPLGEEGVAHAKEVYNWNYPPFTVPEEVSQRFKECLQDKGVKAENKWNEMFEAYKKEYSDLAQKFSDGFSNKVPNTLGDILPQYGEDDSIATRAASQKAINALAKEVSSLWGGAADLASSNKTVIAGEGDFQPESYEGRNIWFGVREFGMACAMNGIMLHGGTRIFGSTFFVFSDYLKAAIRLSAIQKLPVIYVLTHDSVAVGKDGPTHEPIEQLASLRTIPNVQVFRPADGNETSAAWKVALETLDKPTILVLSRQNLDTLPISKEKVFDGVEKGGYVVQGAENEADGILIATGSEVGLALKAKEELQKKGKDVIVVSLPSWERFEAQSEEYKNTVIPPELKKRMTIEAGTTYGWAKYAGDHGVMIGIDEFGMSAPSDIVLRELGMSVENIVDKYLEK

[2] = target: the molecule itself; experiment: SEC-MALS; Superdex 200 Increase 10/300 GL, 20 mM Tris-HCl pH 7.5, 200 mM NaCl, 0.5 mM TCEP, 20 C, with and without 0.5 mM TPP; about 1 mg/ml; dimer and monomer

Row | Molecule | X-ray crystal structure of co-crystal, 2.29 A [1] | stoichiometry N [2]
1 | Cc1ncc(C[n+]2csc(CCOP(=O)(O)OP(=O)(O)O)c2C)c(N)n1 [thiamine pyrophosphate] | Two symmetrical TPP cofactor-binding sites are located at the LsTktA dimer interface | –
2 | Lactobacillus salivarius UCC118 transketolase (LsTktA) (enzyme, UniProt Q1WQU8 1-663, looked up, Transketolase (tktA, LSL_1946) of Lactobacillus salivarius UCC118, encoded on the megaplasmid pMP118; the histidine-tagged protein consists of 680 amino acids; 662 amino acids are modelled in the crystal structures; Crystallised apo and with TPP and Mg2+; also called L. salivarius Tkt; LSL_1946; source: E. coli Rosetta pLysS (DE3), purified (nickel-chelation chromatography, gel filtration)) MYDQVDQLGVNTLRTLSIDAIQRANSGHPGLPMGAAPMAYVLWTRHLKINPKTHMNWVNRDRFVLSAGHGSALLYSLAHLAGYDVSMDDLKNFREWKSNTPGHPEYGCTDGVEATTGPLGQGISMAVGMAMAEAHLGKKFNREGYPVMDHYTYALIGDGDLMEGVASEAASLAGHLKLGKLIALYDSNGISLDGKTSASFTENVGARFEAYGWQYILVEDGFNLEEIDKAIVQAKAESDKPTIIEIKTTIGYGSENQGTHKVHGSPLGEEGVAHAKEVYNWNYPPFTVPEEVSQRFKECLQDKGVKAENKWNEMFEAYKKEYSDLAQKFSDGFSNKVPNTLGDILPQYGEDDSIATRAASQKAINALAKEVSSLWGGAADLASSNKTVIAGEGDFQPESYEGRNIWFGVREFGMACAMNGIMLHGGTRIFGSTFFVFSDYLKAAIRLSAIQKLPVIYVLTHDSVAVGKDGPTHEPIEQLASLRTIPNVQVFRPADGNETSAAWKVALETLDKPTILVLSRQNLDTLPISKEKVFDGVEKGGYVVQGAENEADGILIATGSEVGLALKAKEELQKKGKDVIVVSLPSWERFEAQSEEYKNTVIPPELKKRMTIEAGTTYGWAKYAGDHGVMIGIDEFGMSAPSDIVLRELGMSVENIVDKYLEK | – | 2
